EP1137645B1, “ALPHA-METHYLBENZYL-CONTAINING THIOUREA INHIBITORS OF HERPES VIRUSES CONTAINING A […] GROUP” (Wyeth, priority 1998, dated 2000)
≈ marks a conversion by molar mass, not a printed value. Like-named read-outs stand apart in the source and are kept apart here.

Columns and labels:
[1] = system: HCMV recombinant mutant virus whose genome contains the prokaryotic beta-glucuronidase gene; test: microbe, parasite or virus in culture; type: cell-based, human cytomegalovirus; details: Human betaherpesvirus 5, Fibroblast
Source text: Microtiter plate assay. Ninety-six well plate cultures of human foreskin fibroblasts are infected in the presence of inhibitor compound with a HCMV recombinant mutant virus whose genome contains the prokaryotic beta-glucuronidase gene (Jefferson, R. A., S. M. Burgess, and D. Hirsh. 1986. Beta-glucuronidase from Escherichia coli as a gene fusion marker. Proc. Natl. Acad. Sci. USA 83:8447-8451) whose expression is controlled by a viral promoter. An example of such a virus is RV145 (Jones, T. R., V. P. Muzithras, and Y. Gluzman. 1991. Replacement mutagenesis of the human cytomegalovirus genome: US10 and US11 gene products are nonessential. J. Virol. 65:5860-5872). Since it is under the control of a viral promoter, beta-glucuronidase expression is an indirect indicator of growth and replication of HCMV in this assay. At 96 hours post-infection, the infected cell lysates are prepared (using 50mM sodium phosphate [pH7.0] containing 0.1% Triton X-100 and 0.1% sarkosyl) and assayed for beta-glucuronidase activity using a substrate for the enzyme which when cleaved yields either a product which can be measured colorimetrically in a spectrophotometer or fluorescently in a microfluorimeter. Examples of such substrates are p-nitrophenyl-beta-D-glucuronide and methylumbelliferylglucuronide, respectively. The presence of an antiviral compound is indicated by the reduced expression of the HCMV genome resident beta-glucuronidase gene, compared to the absence of inhibitor. […] Data from this assay generated using varying amounts of inhibitor compound is also used to estimate the IC50 of an inhibitor compound.

[2] = system: HSV- I; test: HSV antiviral (ELISA) assay; type: cell-based; details: read-out: IC50 (ug/ml) HSV
Procedure: Vero cells (ATCC #CCL-81) are plated on 96-well tissue culture plates at 3.5x10^4 cells per 100µl tissue culture DMEM (Dulbecco's modified Eagle media) supplemented with 2% fetal bovine serum (FBS) in each well. After overnight incubation @ 37°C (in 5% CO2) and 30 minutes prior to infection with HSV- I (multiplicity of infection equal to 0.006), cells are either untreated, or treated with test compound (multiple concentrations) or reference standard drug control. After approximately 24 hours post-infection incubation @ 37°C (in 5% CO2), cells are fixed for ELISA assay. The primary antibody is murine anti-HSV glycoprotein D monoclonal primary antibody and the secondary antibody is goat anti-mouse IgG linked to β-galactosidase. Thus the extent of viral replication is determined by assessing β-galactosidase activity by quantifying the generation of the 4-methyl umbelliferone fluorescent cleavage product after addition of the methyl umbelliferyl-β-D-galactoside (Sigma #M1633) substrate on a microfluorimeter (365nm for excitation and 450nm for emission). Antiviral activity (IC50) of the test compound is determined by comparing the flourescence obtained in absence of compound to that obtained in the presence of compound.

[3] = system: VZV strain Ellen; test: VZV antiviral (ELISA) assay; type: cell-based
Procedure: For the generation of stock VZV to be used in the assay, VZV strain Ellen (ATCC #VR-1367) is used to infect human foreskin fibroblast (HFF) cells at low multiplicity (less than 0.1) and incubated overnight at 37°C in 5% CO2. After the overnight incubation, the mixture of uninfected and VZV-infected HFF infected cells are then harvested and added to each well of 96-well plates (3.5x10^4 cells in 100 µl DMEM supplemented with 2% FBS) which contain test compound or the reference standard drug control (in 100µl DMEM supplemented with 2% FBS per well). These cells are incubated for three days at 37°C in 5% CO2, then fixed for ELISA assay. The primary antibody is murine anti-VZV glycoprotein II monoclonal antibody (Applied Biosystems, Inc. #13-145-100) and the secondary antibody is goat anti-mouse IgG linked to β-galactosidase. Thus the extent of viral replication is determined by assessing β-galactosidase activity by quantifying the generation of the 4-methyl umbelliferone fluorescent cleavage product after addition of the methyl umbelliferyl-β-D-galactoside (Sigma #M1633) substrate on a microfluorimeter (365nm for excitation and 450nm for emission). Antiviral activity (IC50) of the test compound is determined by comparing the flourescence obtained in absence of compound to that obtained in the presence of compound.

[4] = read-out: IC50 ug/ml HCMV, HCMV, human foreskin fibroblasts
[5] = Human alphaherpesvirus 3, HFF, read-out: IC50 (ug/ml) VZV
[6] = Human alphaherpesvirus 3, HFF, read-out: IC50 (ug/ml) VZV, VZV strain Ellen, HFF cells, ELISA
[7] = Human alphaherpesvirus 3, VZV strain Ellen, HFF cells, ELISA, read-out: IC50 (ug/ml) VZV
[8] = Human alphaherpesvirus 3, HFF, read-out: % inhibition 10 ug/ml VZV

SMILES	IC50 [1, 4] [µg/mL]	IC50 ([2]; HSV- I, Vero cells, ELISA) [µg/mL]	IC50 [3, 5] [µg/mL]	IC50 ([2]; Vero) [µg/mL]	IC50 [3, 6] [µg/mL]	IC50 ([1]; read-out: IC50 ug/ml HCMV) [µg/mL]	inhibition at 10 µg/mL ([3]; Human alphaherpesvirus 3, read-out: % inhibition 10 ug/ml VZV, 10 ug/ml, VZV strain Ellen, HFF cells, ELISA) [%]	IC50 [3, 7] [µg/mL]	inhibition at 10 µg/mL [3, 8] [%]
CC(NC(=S)Nc1ccc(NC(=O)c2cnc3ccccc3c2)cc1)c1ccc(F)cc1 (stereo not drawn) [Example 988, Quinoline-3-carboxylic acid (4-{3-[1-(4-fluoro-phenyl)-ethyl]-thioureido}-phenyl)-amide]	> 10	> 10	3.4 (≈ 7.65 µM)						
CC(NC(=S)Nc1ccc(NC(=O)c2ccccc2F)cc1)c1cccc(N(C)C)c1 (stereo not drawn) [Example 794, N-(4-{3-[1-(3-Dimethylamino-phenyl)-ethyl]-thioureido}-phenyl)-2-fluoro-benzamide]	6.2 (≈ 14.2 µM)			7 (≈ 16 µM)	0.4 (≈ 0.916 µM)				
O=C(Nc1ccc(NC(=S)NCc2ccc(Cl)c(Cl)c2)cc1)c1ccccc1F [Example 538, N-{4-[3-(3,4-Dichloro-benzyl)-thioureido]-phenyl}-2-fluoro-benzamide]	> 10			> 10	10 (≈ 22.3 µM)				
CC(NC(=S)Nc1ccc(NC(=O)c2ccccc2F)cc1)c1ccc(S(=O)(=O)N(C)C)cc1 (stereo not drawn) [Example 1008, N-(4-{3-[1-(4-Dimethylsulfamoyl-phenyl)-ethyl]-thioureido}-phenyl)-2-fluoro-benzamide]	8.5 (≈ 17 µM)			> 10	> 10				
O=C(Nc1ccc(NC(=S)Nc2cccc([N+](=O)[O-])c2)cc1)c1ccccc1F [Example 959, 2-Fluoro-N-{4-[3-(3-nitro-phenyl)-thioureido]-phenyl}-benzamide]		0.7 (≈ 1.71 µM)				> 10	33	> 10	
COc1cc(OC)c(NC(=S)Nc2ccc(NC(=O)c3cccc(OCCN(C)C)c3)cc2)cc1Cl [Example 257, N-{4-[3-(5-Chloro-2,4-dimethoxy-phenyl)-thioureido]-phenyl}-3-(2-dimethylamino-ethoxy)-benzamide]	7 (≈ 13.2 µM)	2.5 (≈ 4.73 µM)	2.5 (≈ 4.73 µM)						105
CC(NC(=S)Nc1ccc(NC(=O)c2ccccc2)cc1)c1ccc(F)cc1 (stereo not drawn) [Example 758, N-(4-{3-[1-(4-Fluoro-phenyl)-ethyl]-thioureido}-phenyl)-benzamide]		> 10				> 10		> 10	
CN1CCC(N(C)c2ccc(NC(=S)Nc3ccc(NC(=O)c4c(F)cccc4F)cc3)cc2Cl)CC1 [Example 340, N-[4-(3-{3-Chloro-4-[methyl-(1-methyl-piperidin-4-yl)-amino]-phenyl}-thioureido)-phenyl]-2,6-difluoro-benzamide]	0.25 (≈ 0.459 µM)	3 (≈ 5.51 µM)	4 (≈ 7.35 µM)						99
COc1ccc(NC(=S)Nc2ccc(NC(=O)c3ccccc3F)cc2)cc1C(F)(F)F [Example 998, 2-Fluoro-N-{4-[3-(4-methoxy-3-trifluoromethyl-phenyl)-thioureido]-phenyl}-benzamide]		3 (≈ 6.47 µM)				> 10		5 (≈ 10.8 µM)	
CC(NC(=S)Nc1ccc(NC(=O)c2cc3ccccc3cn2)cc1)c1ccc(C#N)cc1 (stereo not drawn) [Example 986, Isoquinoline-3-carboxylic acid (4-{3-[1-(4-cyano-phenyl)-ethyl]-thioureido}-phenyl)-amide]	5.2 (≈ 11.5 µM)			> 10	0.05 (≈ 0.111 µM)				
